Legend:
Assay type in all cases: biochemical
Conditions in all cases: OMFP substrate
Scp1 = target: T1, Scp1 (Homo sapiens, UniProt Q9GZU7); experiment: Phosphatase assay of Scp1
T1 sequence (Q9GZU7 1-261): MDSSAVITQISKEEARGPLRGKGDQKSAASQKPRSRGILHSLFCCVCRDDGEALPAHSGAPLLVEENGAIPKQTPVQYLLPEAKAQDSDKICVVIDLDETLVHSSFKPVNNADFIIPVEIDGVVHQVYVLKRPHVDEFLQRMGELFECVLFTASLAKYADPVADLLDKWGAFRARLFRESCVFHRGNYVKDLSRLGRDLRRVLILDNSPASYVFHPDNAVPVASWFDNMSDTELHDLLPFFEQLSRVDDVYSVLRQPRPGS

PTP1B = target: T2, PTP1B (Homo sapiens, UniProt P18031); experiment: Phosphatase assay of PTP1B
T2 sequence (P18031 1-435): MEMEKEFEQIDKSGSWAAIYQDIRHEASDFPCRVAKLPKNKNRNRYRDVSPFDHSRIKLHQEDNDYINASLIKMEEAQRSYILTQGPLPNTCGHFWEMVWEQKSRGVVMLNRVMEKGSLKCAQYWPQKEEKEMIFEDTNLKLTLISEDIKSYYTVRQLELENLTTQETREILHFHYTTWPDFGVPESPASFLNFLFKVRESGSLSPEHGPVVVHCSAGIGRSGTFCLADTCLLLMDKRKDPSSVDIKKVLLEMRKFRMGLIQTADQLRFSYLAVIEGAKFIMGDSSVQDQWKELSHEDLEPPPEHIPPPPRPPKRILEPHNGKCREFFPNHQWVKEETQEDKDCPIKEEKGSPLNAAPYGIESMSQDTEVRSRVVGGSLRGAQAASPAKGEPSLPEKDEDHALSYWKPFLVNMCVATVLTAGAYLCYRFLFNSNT

PPM1A = target: T3, PPM1A (Homo sapiens, UniProt P35813); experiment: Phosphatase assay of PPM1A
T3 sequence (P35813 1-382): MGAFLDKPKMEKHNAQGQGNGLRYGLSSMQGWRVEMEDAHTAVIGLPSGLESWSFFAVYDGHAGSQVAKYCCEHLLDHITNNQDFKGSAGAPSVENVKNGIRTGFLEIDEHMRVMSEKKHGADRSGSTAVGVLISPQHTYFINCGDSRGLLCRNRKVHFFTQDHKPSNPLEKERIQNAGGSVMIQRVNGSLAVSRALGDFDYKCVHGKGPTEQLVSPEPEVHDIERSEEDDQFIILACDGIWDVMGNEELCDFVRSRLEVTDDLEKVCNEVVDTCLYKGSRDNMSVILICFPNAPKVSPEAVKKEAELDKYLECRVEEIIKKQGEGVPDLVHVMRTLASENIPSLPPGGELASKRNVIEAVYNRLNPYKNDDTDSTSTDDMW

O=C(N/N=C/c1ccc(Sc2ccccn2)o1)c1cccc([N+](=O)[O-])c1 [MLS000700592]
does not significantly inhibit: inhibition of Scp1 phosphatase activity (Scp1) | inhibition of PTP1B phosphatase activity (PTP1B) | inhibition of PPM1A phosphatase activity (PPM1A)

O=C(N/N=C/c1ccc(Sc2ccccn2)o1)c1ccccc1 [NCGC00241225]
does not significantly inhibit: inhibition of Scp1 phosphatase activity (Scp1) | inhibition of PTP1B phosphatase activity (PTP1B) | inhibition of PPM1A phosphatase activity (PPM1A)

From paper PMC3893891 (Journal of biomolecular screening, 2012)
